Source: US20190167676A1, “METHODS FOR IMPROVING RESISTANCE TO SKELETAL MUSCLE FATIGUE” (Cytokinetics, Inc., priority 2012, published 2019)

How the values were obtained:
rat EDL muscle = test: Isometric tension and relaxation time in rat EDL muscle in situ; format: in vivo
Protocol: As with the in vitro FDB muscle studies, another predominately fast muscle fiber type, the extensor digitorum long us (EDL), was stimulated toward contractions in unconscious rats in situ. In these isometric muscle studies (measuring force at fixed length), force, time to peak contraction, time to half relaxation after cessation of stimulation (RT1/2) and baseline tension were determined. These studies have the advantage that the nerve and muscle pair were intact and had typical blood flow to the muscle under investigation.
Rats were placed under anesthesia using isoflurane and the skin around the experimental leg was removed. The distal end of the EDL muscle and its associated tendon were then isolated. The rat was then placed on the platform of an Aurora in-situ muscle analysis rig (806C), maintained at body temperature via a circulating water system. The knee was immobilized in a clamp between two sharpened screws and the distal tendon cut and tied to the arm of a force transducer (Aurora Scientific, Ontario, Canada) using a silk suture. The muscle was stimulated directly via the peroneal nerve. […] Muscle contractile properties were assessed by applying an electrical current to the nerve and recording the force generated by the muscle via a servomotor. […]

[1] = tested on: rat plantarflexor muscles; test: Rat plantar flexor force and power in situ; format: in vivo
From the text: Rats were placed under anesthesia using isoflurane and the sciatic nerve of the experimental leg exposed. The rat was then placed on the platform of an Aurora in-situ muscle analysis rig (806C), maintained at body temperature via a circulating water system. The knee was immobilized in a clamp between two sharpened screws and the foot attached securely to the footplate of a force transducer (Aurora Scientific, Ontario, Canada) using laboratory tape. The muscle was stimulated directly via the sciatic nerve. For isolation of the nerve, a 1 cm incision was made at the upper thigh and the overlying muscle was dissected to expose an approximate 5 mm stretch of the sciatic nerve. This was then dissected free of surrounding connective tissue and a pair of stainless steel needle electrodes (0.10 mm) were hooked around the exposed nerve. The peroneal branch was severed to remove innervation to the plantar-extensor muscle groups. Muscle contractile properties were assessed by applying an electrical current to the nerve and recording the force generated by the muscle via a servomotor. Isokinetic contractile properties were assessed as force generated during a pre-programmed movement of the footplate. Footplate movements were 0.7 radians in size ([…]).
Solutions of Compound A (50% PEG300/10% EtOH/40% cavitron formulation) were administered via a femoral vein catheter as a single slow bolus over a 2 min period, with a maximal dosage volume of 5 ml/Kg. During the experiment, blood was drawn via the tail vein for compound concentration analysis. At the end of each assay, the length and weight of the muscle was recorded, and measured force normalized to the mass of the muscle (N/g).
Compound A increased force generation throughout the curve to generate a total of 55% more work over the 300 second period, while maintaining a similar profile to that of the vehicle.
The same protocol was repeated with a second skeletal muscle troponin activator, 1-((1R)-1-methylpropyl)-6-chloro-7-pyrazolylimidazo[4,5-b]pyridin-2-ol (Compound B). Compound B and analogous skeletal muscle troponin activators are disclosed in U.S. Pat. No. 7,989,469. […] 0.7 radian displacement and stimulation frequency calculated to provide 50% of maximum isokinetic tension. Compound B maintained force generation throughout the curve, at almost 50% of vehicle stimulation frequency, to generate the same total work over the 300 second period, while maintaining a similar profile to that of the vehicle.

[2] = tested on: patients with peripheral artery disease and claudication; test: Bilateral heel raise test, Phase II study; format: in vivo, human
Protocol: This study was a double-blind, randomized, placebo-controlled, three-period cross-over, hypothesis generating Phase II study in patients with peripheral artery disease and claudication. […] Secondary objectives included (a) evaluation and characterization of the relationship, if any, between the doses and plasma concentrations of Compound A and its pharmacodynamic effects, and (b) evaluation of the safety and tolerability of Compound A administered as single doses.
Single doses of each of 375 mg Compound A, 750 mg Compound A and placebo were administered in random order with a 6 to 10 day wash out between each dose. […] Results were analyzed using a repeated-measures ANCOVA with treatment, sequence, period, baseline, and patient in the model. […]
In the bilateral heel raise test, the lateral aspect of the ankle on the dominant leg was instrumented with an electromechanical goniometer connected to a PC-based data collection system to monitor and record ankle angle position and range of motion (Noraxon U.S.A., Inc., Scottsdale, Ariz.). […] The total number of heel raises, time, and a calculated index of work performed were assessed from the beginning of test to the onset of claudication and to maximal exercise. An index of work performed was calculated as follows: Heel Raise Work Index (HRWI)=(sinθ°*foot length)*body mass.

fast skeletal myofibrils = molecular target: T1, fast skeletal myofibrils (Homo sapiens, UniProt P02585); conditions: cited from earlier work
T1 construct: from tissue; host or cells: fast skeletal muscle myofibrils
T1 sequence (P02585 whole entry): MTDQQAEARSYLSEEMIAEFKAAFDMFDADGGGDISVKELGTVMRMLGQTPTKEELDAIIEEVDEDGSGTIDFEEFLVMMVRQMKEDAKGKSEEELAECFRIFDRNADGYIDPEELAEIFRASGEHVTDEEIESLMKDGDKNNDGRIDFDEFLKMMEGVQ
T1 sequence (P48788 whole entry partner): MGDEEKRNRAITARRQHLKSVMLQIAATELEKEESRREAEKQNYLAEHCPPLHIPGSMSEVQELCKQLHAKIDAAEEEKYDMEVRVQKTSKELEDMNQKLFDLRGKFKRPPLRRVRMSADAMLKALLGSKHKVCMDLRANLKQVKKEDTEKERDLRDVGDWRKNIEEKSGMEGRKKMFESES
T1 sequence (P45378 whole entry partner): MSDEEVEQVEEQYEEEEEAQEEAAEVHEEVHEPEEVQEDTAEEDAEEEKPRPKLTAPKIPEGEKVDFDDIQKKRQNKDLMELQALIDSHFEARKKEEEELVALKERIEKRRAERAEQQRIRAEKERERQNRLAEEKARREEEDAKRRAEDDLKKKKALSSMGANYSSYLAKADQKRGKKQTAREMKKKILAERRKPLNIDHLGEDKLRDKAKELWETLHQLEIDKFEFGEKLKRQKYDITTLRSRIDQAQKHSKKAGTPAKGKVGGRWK

In the case of `C#Cc1cnc2nc(O)n(C(CC)CC)c2n1` [Compound A, 6-ethynyl-1-(pentan-3-yl)-1H-imidazo[4,5-b]pyrazin-2-ol], the “increase in relaxation time” value (rat EDL muscle; 10 mg/kg) is reported as “approximately 3.5 fold”, the “sub-maximal and maximal force in situ” value (rat EDL muscle; femoral artery catheter, dose escalation up to 10 mg/Kg) is reported as “increase in sub-maximal force without increasing maximal force” and the “isokinetic force frequency relationship” value ([1]; at 3.1 radians/s) is reported as “increased in the submaximal range in a dose dependent manner”. The force-velocity relationship ([1]; at 30 Hz) was “increased across all velocities in a dose and velocity dependent manner”, the power output ([1]; corresponding to force velocities at 30 Hz) was “dose dependent increase” and the “isometric force frequency relationship” value ([1]; in situ) was “increased in the submaximal range in a dose dependent manner”. For the same compound, the “more total work over the 300 second period” value ([1]; isokinetic fatigue protocol, 1 flexion per second at 3.1 radians/s, 30 Hz, vs vehicle) was 55%, the “relationship between plasma concentrations and outcomes in the Heel Raise Test” value ([2]; PK/PD analysis, FIG. 14) was “strong positive relationship” and the “calf muscle performance by heel raise testing” value ([2]; single doses 375, 500, 750 mg, 3 and 6 hours after dosing) was “increased calf muscle performance”. For the same compound, the “myosin ATPase relationship to Ca2+ concentration” value (fast skeletal myofibrils) was “leftward-shift”.
